According to BigSolDB 2.1:

c1ccc2c(c1)OP1(=NP3(=NP4(=N1)Oc1ccccc1O4)Oc1ccccc1O3)O2
Conditions	solubility (mole fraction)
in 1,2-dichloroethane, 293.25 K	0.000409
in 1,2-dichloroethane, 298.35 K	0.000585
in 1,2-dichloroethane, 303.15 K	0.000765
in 1,2-dichloroethane, 308.15 K	0.00107
in 1,2-dichloroethane, 313.25 K	0.0015
in 1,2-dichloroethane, 318.55 K	0.00195
in 1,2-dichloroethane, 323.15 K	0.00252
in 1,2-dichloroethane, 328.55 K	0.00324
in 1,2-dichloroethane, 333.15 K	0.00419
in 1,2-dichloroethane, 338.25 K	0.00582
in THF, 291.95 K	0.000921
in THF, 298.25 K	0.00112
in THF, 303.65 K	0.00137
in THF, 307.95 K	0.00159
in THF, 313.25 K	0.00188
in THF, 318.35 K	0.00218
in THF, 323.15 K	0.0025
in THF, 328.25 K	0.00292
in acetone, 294.35 K	0.00025
in acetone, 298.35 K	0.000323
in acetone, 303.45 K	0.000429
in acetone, 308.65 K	0.000588
in acetone, 313.35 K	0.000759
in acetone, 318.15 K	0.000977
in acetone, 323.25 K	0.00126
in acetonitrile, 293.25 K	0.000116
in acetonitrile, 298.15 K	0.000217
in acetonitrile, 303.25 K	0.000289
in acetonitrile, 308.15 K	0.000369
in acetonitrile, 313.55 K	0.000471
in acetonitrile, 318.25 K	0.000586
in acetonitrile, 323.15 K	0.000743
in acetonitrile, 328.35 K	0.000922
in acetonitrile, 333.15 K	0.00115
in chloroform, 298.15 K	0.00214
in chloroform, 303.05 K	0.0027
in chloroform, 308.05 K	0.00334
in chloroform, 313.65 K	0.00427
in chloroform, 318.55 K	0.00519
in chloroform, 323.05 K	0.00628
in chloroform, 328.75 K	0.00771
in dichloromethane, 288.15 K	0.00108
in dichloromethane, 291.55 K	0.00127
in dichloromethane, 294.45 K	0.00145
in dichloromethane, 298.35 K	0.00175
in dichloromethane, 303.45 K	0.00219
in dichloromethane, 308.65 K	0.00276
in ethanol, 293.95 K	9.52e-05
in ethanol, 298.05 K	0.000117
in ethanol, 303.25 K	0.000153
in ethanol, 308.35 K	0.000194
in ethanol, 313.35 K	0.000234
in ethanol, 318.15 K	0.000308
in ethanol, 322.95 K	0.00038
in ethanol, 328.15 K	0.000451
in ethanol, 332.45 K	0.000562
in ethyl acetate, 298.15 K	0.000419
in ethyl acetate, 303.35 K	0.000563
in ethyl acetate, 308.25 K	0.000675
in ethyl acetate, 313.45 K	0.000856
in ethyl acetate, 318.25 K	0.00107
in ethyl acetate, 323.15 K	0.00133
in ethyl acetate, 328.15 K	0.00166
in ethyl acetate, 332.45 K	0.00188
in toluene, 293.15 K	0.000667
in toluene, 298.25 K	0.000868
in toluene, 303.15 K	0.00108
in toluene, 308.35 K	0.00137
in toluene, 313.55 K	0.0017
in toluene, 318.25 K	0.00205
in toluene, 323.15 K	0.00249
in toluene, 328.35 K	0.00305
in toluene, 333.15 K	0.00367
in toluene, 338.25 K	0.00442
